In brackets after ≈: the same amount, converted by molar mass. Where two headings read alike, the source gives them in different places. Where a SMILES comes first, the peptide text is derived from it. The star is where a group is joined. Palmitoyl = CCCCCCCCCCCCCCCC(=O)*; Myristoyl = CCCCCCCCCCCCCC(=O)*
Assays:
[1] = test system: Eco DH5α; conditions: 48 h
[2] = test system: Ech; conditions: up to 32 μg/ml
[3] = test system: Bc; conditions: up to 32 μg/ml; for MIC: spores, 96 h; for MBC/MFC / MFC: spotted on PD plate 24~72 h
[4] = test system: Pectobacterium carotovorum subsp. carotovorum (Pcc); test: Plant disease response, Pcc infection of Arabidopsis Col0 leaves; format: in vivo, Arabidopsis thaliana; conditions: crude peptide 16 μg/ml mixed with Pcc, wounded leaves of Arabidopsis Col0, 16–28 h post-inoculation, vs water
[5] = test system: Cgl FST02; conditions: up to 32 μg/ml; for MIC: spores, 96 h; for MBC/MFC / MFC: spotted on PD plate 24~72 h
[6] = test system: Botrytis cinerea (Bc); test: Plant disease response, Bc infection of tomato L390 leaves; format: in vivo, Solanum lycopersicum; conditions: crude peptide 16 μg/ml mixed with Bc spores (10^4 spores/ml), 47–70 h post-inoculation, vs water
[7] = test system: Rs Pss4; conditions: Table 5, minimal medium, crude peptides, up to 32 μg/ml; for MIC: 96 h; for MBC/MFC: spotted on rich agar 48 h
[8] = test system: Eco; format: cell-based, Escherichia coli
[9] = test system: Pcc; conditions: up to 32 μg/ml
[10] = test system: Rs Pss190; conditions: Table 5, minimal medium, crude peptides, up to 32 μg/ml; for MIC: 96 h; for MBC/MFC: spotted on rich agar 48 h
[11] = test system: Pectobacterium carotovorum subsp. carotovorum (Pcc); test: Plant disease response, Pcc infection of tomato L390 leaves; format: in vivo, Solanum lycopersicum; conditions: crude peptide 16 μg/ml mixed with Pcc, detached wounded tomato L390 leaves, 16–28 h post-inoculation, vs water
[12] = test system: Botrytis cinerea (Bc); test: Plant disease response, Bc infection of Arabidopsis Col0 leaves; format: in vivo, Arabidopsis thaliana; conditions: crude peptide 16 μg/ml mixed with Bc spores (10^5 spores/ml), Arabidopsis Col0 leaves, 47–70 h post-inoculation, vs water
[13] = test system: Rs; format: cell-based, Ralstonia solanacearum; conditions: crude peptide, 5 μl of 64 μg/ml in 20 μl, bacteria OD600=0.4 in water, 2 h, confocal microscopy
[14] = test system: Eco DH5α; conditions: DH5α, 24 h
[15] = test system: Xev Xvt28; conditions: 24 h
[16] = Table 5, minimal medium, crude peptides, 96 h
[17] = Table 5, minimal medium, crude peptides, spotted on rich agar 48 h
[18] = Table 5, minimal (CD) medium, crude peptides
[19] = Table 7, rich media, spotted on rich agar 48 h

Ac-WKKIKKIIKKIKKI-NH2 [pepI2]
MBC [1]: 4 µg/mL
MIC [1]: 4 µg/mL

CCCCCCCCCCCCCC(=O)N[C@@H](Cc1c[nH]c2ccccc12)C(=O)N[C@@H](CCCCN)C(=O)N[C@@H](CCCCN)C(=O)N[C@@H](CC(C)C)C(=O)N[C@@H](CCCCN)C(=O)N[C@@H](CCCCN)C(=O)N[C@@H](CC(C)C)C(=O)N[C@@H](CC(C)C)C(=O)N[C@@H](CCCCN)C(=O)N[C@@H](CCCCN)C(=O)N[C@@H](CC(C)C)C(=O)N[C@@H](CCCCN)C(=O)N[C@@H](CCCCN)C(=O)N[C@@H](CC(C)C)C(N)=O [pepD2M] (Myristoyl-WKKLKKLLKKLKKL-NH2)
MIC [2, 16]: 4 µg/mL (≈ 2 µM)
MBC/MFC [2, 17]: 8 µg/mL (≈ 3.99 µM)
MIC [3, 18]: 16 µg/mL (≈ 7.98 µM)
MBC/MFC [3, 18]: 16 µg/mL (≈ 7.98 µM)
MIC ([3]; Table 6, minimal media): 16 µg/mL (≈ 7.98 µM)
MFC ([3]; Table 6, minimal media): 32 µg/mL (≈ 16 µM)
size of disease lesions caused by Pcc, Arabidopsis [4]: significantly reduced the sizes of the disease lesions
MIC [5, 18]: 8 µg/mL (≈ 3.99 µM)
MBC/MFC [5, 18]: 16 µg/mL (≈ 7.98 µM)
MIC ([5]; Table 6, minimal media): 16 µg/mL (≈ 7.98 µM)
MFC ([5]; Table 6, minimal media): 16 µg/mL (≈ 7.98 µM)
development of the lesion caused by Bc, tomato [6]: decreased the development of the lesion
MIC [7]: 8 µg/mL (≈ 3.99 µM)
MBC/MFC [7]: 8 µg/mL (≈ 3.99 µM)
membranolytic effect (SYTOX Green staining) [8]: significant membranolytic effect
MIC [9, 16]: 4 µg/mL (≈ 2 µM)
MBC/MFC [9, 17]: 4 µg/mL (≈ 2 µM)
MIC [10]: 8 µg/mL (≈ 3.99 µM)
MBC/MFC [10]: 8 µg/mL (≈ 3.99 µM)
size of disease lesions caused by Pcc, tomato [11]: significantly reduced the sizes of the disease lesions
development of the lesion caused by Bc, Arabidopsis [12]: decreased the development of the lesion
membranolytic effect (SYTOX Green staining) [13]: significant membranolytic effect

CCCCCCCCCCCCCC(=O)N[C@@H](Cc1c[nH]c2ccccc12)C(=O)N[C@@H](CCCCN)C(=O)N[C@@H](CCCCN)C(=O)N[C@@H](CC(C)C)C(=O)N[C@@H](CCCCN)C(=O)N[C@@H](CCCCN)C(=O)N[C@@H](CC(C)C)C(=O)N[C@@H](CC(C)C)C(=O)N[C@@H](CCCCN)C(=O)N[C@@H](CCCCN)C(=O)N[C@@H](CC(C)C)C(N)=O [pepD3M] (Myristoyl-WKKLKKLLKKL-NH2)
MIC [2, 16]: 4 µg/mL (≈ 2.45 µM)
MBC/MFC [2, 17]: 8 µg/mL (≈ 4.89 µM)
MIC [3, 18]: 4 µg/mL (≈ 2.45 µM)
MBC/MFC [3, 18]: 8 µg/mL (≈ 4.89 µM)
size of disease lesions caused by Pcc, Arabidopsis [4]: significantly reduced the sizes of the disease lesions
MIC [5, 18]: 8 µg/mL (≈ 4.89 µM)
MBC/MFC [5, 18]: 8 µg/mL (≈ 4.89 µM)
development of the lesion caused by Bc, tomato [6]: decreased the development of the lesion
MIC [7]: 8 µg/mL (≈ 4.89 µM)
MBC/MFC [7]: 16 µg/mL (≈ 9.78 µM)
MIC [9, 16]: 4 µg/mL (≈ 2.45 µM)
MBC/MFC [9, 17]: 4 µg/mL (≈ 2.45 µM)
MIC [10]: 16 µg/mL (≈ 9.78 µM)
MBC/MFC [10]: 16 µg/mL (≈ 9.78 µM)
size of disease lesions caused by Pcc, tomato [11]: significantly reduced the sizes of the disease lesions
development of the lesion caused by Bc, Arabidopsis [12]: decreased the development of the lesion

CCCCCCCCCCCCCCCC(=O)N[C@@H](Cc1c[nH]c2ccccc12)C(=O)N[C@@H](CCCCN)C(=O)N[C@@H](CCCCN)C(=O)N[C@@H](CC(C)C)C(=O)N[C@@H](CCCCN)C(=O)N[C@@H](CCCCN)C(=O)N[C@@H](CC(C)C)C(=O)N[C@@H](CC(C)C)C(=O)N[C@@H](CCCCN)C(=O)N[C@@H](CCCCN)C(=O)N[C@@H](CC(C)C)C(=O)N[C@@H](CCCCN)C(=O)N[C@@H](CCCCN)C(=O)N[C@@H](CC(C)C)C(N)=O [pepD2P] (Palmitoyl-WKKLKKLLKKLKKL-NH2)
MIC ([3]; Table 6, minimal media): 8 µg/mL (≈ 3.94 µM)
MFC ([3]; Table 6, minimal media): 8 µg/mL (≈ 3.94 µM)
MIC ([5]; Table 6, minimal media): 8 µg/mL (≈ 3.94 µM)
MFC ([5]; Table 6, minimal media): 8 µg/mL (≈ 3.94 µM)

Ac-WKKVKKVVKKVKKV-NH2 [pepV2]
MIC ([2]; Table 7, rich media, 48 h): – (“–” indicates that no antimicrobial activity was detected in rich media at the highest peptide concentration (32μg/ml) that was tested in this study.)
MBC [2, 19]: – (“–” indicates that no antimicrobial activity was detected in rich media at the highest peptide concentration (32μg/ml) that was tested in this study.)
MBC [1]: 32 µg/mL
MIC [1]: 32 µg/mL
MIC ([9]; Table 7, rich media, 48 h): – (“–” indicates that no antimicrobial activity was detected in rich media at the highest peptide concentration (32μg/ml) that was tested in this study.)
MBC [9, 19]: – (“–” indicates that no antimicrobial activity was detected in rich media at the highest peptide concentration (32μg/ml) that was tested in this study.)

Stearyl-WKKLKKLLKKLKKL-NH2 [pepD2S]
MIC ([3]; Table 6, minimal media): – (“–” indicates that no antimicrobial activity was detected in minimal media at the highest peptide concentration (32μg/ml) that was tested in this study.)
MFC ([3]; Table 6, minimal media): – (“–” indicates that no antimicrobial activity was detected in minimal media at the highest peptide concentration (32μg/ml) that was tested in this study.)
MIC ([5]; Table 6, minimal media): – (“–” indicates that no antimicrobial activity was detected in minimal media at the highest peptide concentration (32μg/ml) that was tested in this study.)
MFC ([5]; Table 6, minimal media): – (“–” indicates that no antimicrobial activity was detected in minimal media at the highest peptide concentration (32μg/ml) that was tested in this study.)

Ac-WKLKLKLKLKLKLKLKLK-NH2 [pepE]
IC50 [14]: 10 µg/mL
IC50 [15]: 2 µg/mL

Ac-WKLLKKLLKKLKKLLKKL-NH2 [pepC]
IC50 [14]: 10 µg/mL
IC50 [15]: 10 µg/mL

Reference: publication PMC8514817, “De Novo Design of Antimicrobial Peptides With a Special Charge Pattern and Their Application in Combating Plant Pathogens” (Frontiers in Plant Science, 2021)
